The results in this text go back to ChEMBL document CHEMBL1157563 (J Med Chem, 2010).

The source made the active and inactive calls. The calls are words filed in the database; no cut-off is given here. Some results are limits rather than exact numbers.

Experiment [1] concerns the target Histone deacetylase. The experiment is classed as cell-based, Homo sapiens. The settings on record: hela.
Description: Inhibition of HDAC in human HeLa cell nuclear extract
In experiment [2] the target is Epidermal growth factor receptor (Homo sapiens, UniProt P00533).
For experiment [3], the target named is Receptor tyrosine-protein kinase erbB-2 (Homo sapiens, UniProt P04626).
Experiment [4] is described as follows: cells. Conditions: Homo sapiens, HCC827. The experiment is classed as functional, cell-based.
Description: Antiproliferative activity against human HCC827 cells after hrs by ATP content assay
The test system of experiment [5] is NCI-H358. As to the kind of experiment: cells. The format is functional, cell-based. The settings on record: Homo sapiens.
Description: Antiproliferative activity against human NCI-H358 cells after hrs by ATP content assay
In experiment [6] the test system is NCI-H460. As to the kind of experiment: cells. The experiment is classed as functional, cell-based. The settings on record: Homo sapiens.
Description: Antiproliferative activity against human H460 cells after hrs by ATP content assay
For experiment [7], the system named is HepG2. As to the kind of experiment: Antiproliferative activity against human HepG2 cells after hrs by ATP content assay. The experiment is classed as functional, cell-based.
Experiment [8] is described as follows: cells. The experiment is classed as functional, cell-based, Hep 3B2. The settings on record: Homo sapiens, Hep3B.
Description: Antiproliferative activity against human Hep3B2 cells after hrs by ATP content assay
Experiment [9] has as its system SK-HEP1. As to the kind of experiment: cells. The experiment is classed as functional, cell-based. The settings on record: Homo sapiens.
Description: Antiproliferative activity against human SKHEP1 cells after hrs by ATP content assay
For experiment [10], the system named is CAPAN-1. As to the kind of experiment: cells. Conditions: Homo sapiens. The format is functional, cell-based.
Description: Antiproliferative activity against human Capan1 cells after hrs by ATP content assay
Experiment [11] relates to BXPC-3. As to the kind of experiment: cells. The experiment is classed as functional, cell-based. The settings on record: Homo sapiens.
Description: Antiproliferative activity against human BxPC3 cells after hrs by ATP content assay
Experiment [12] concerns MCF7. The experiment in a line: cells. The experiment is classed as functional, cell-based. The settings on record: Homo sapiens.
Description: Antiproliferative activity against human MCF7 cells after hrs by ATP content assay
For experiment [13], the system named is MDA-MB-231. As to the kind of experiment: Antiproliferative activity against human MDA-MB-231 cells after hrs by ATP content assay. The format is functional, cell-based.
In experiment [14] the test system is SK-BR-3. As to the kind of experiment: cells. The format is functional, cell-based. Conditions: Homo sapiens.
Description: Antiproliferative activity against human SK-BR-3 cells after hrs by ATP content assay
In experiment [15] the target is NAD-dependent protein deacetylase sirtuin-1 (Homo sapiens) (UniProt Q96EB6). As to the kind of experiment: Inhibition of human SIRT1 expressed in Escherichia coli.
Experiment [16] addresses NAD-dependent protein deacetylase sirtuin-2 (Homo sapiens) (UniProt Q8IXJ6). The experiment in a line: Inhibition of human SIRT2 expressed in Escherichia coli.
In experiment [17] the target is NAD-dependent protein deacetylase sirtuin-3, mitochondrial (Homo sapiens) (UniProt Q9NTG7). The experiment in a line: Inhibition of human SIRT3 expressed in Escherichia coli.
Experiment [18] concerns the target Vascular endothelial growth factor receptor 2 (Homo sapiens, UniProt P35968). As to the kind of experiment: Inhibition of KDR.
Experiment [19] concerns the target Proto-oncogene tyrosine-protein kinase Src (Homo sapiens, UniProt P12931). As to the kind of experiment: Inhibition of Src.
Experiment [20] addresses Tyrosine-protein kinase Lyn (Homo sapiens, UniProt P07948). As to the kind of experiment: Inhibition of Lyn.
For experiment [21], the target named is Tyrosine-protein kinase Lck (Homo sapiens, UniProt P06239). The experiment in a line: Inhibition of Lck.
Experiment [22] concerns the target Fibroblast growth factor receptor 2 (Homo sapiens, UniProt P21802). As to the kind of experiment: Inhibition of FGFR2.
Experiment [23] concerns the target Receptor-type tyrosine-protein kinase FLT3 (Homo sapiens, UniProt P36888). The experiment in a line: Inhibition of Flt3.
The subject of experiment [24] is NCI-H358. As to the kind of experiment: Antitumor activity against human NCI-H358 cells xenografted in nude CD1 mouse at 15 mg/kg, iv dosed daily on 7-6-5 (on-off-on) schedule relative to control. The experiment is classed as functional.
In experiment [25] the test system is NCI-H358. As to the kind of experiment: Antitumor activity against human NCI-H358 cells xenografted in nude CD1 mouse at 30 mg/kg, iv dosed daily on 7-6-5 (on-off-on) schedule relative to control. The format is functional. For orientation: In xenograft studies the graft and the host belong to different species.
In experiment [26] the test system is NCI-H358. The experiment in a line: Antitumor activity against human NCI-H358 cells xenografted in nude CD1 mouse at 60 mg/kg, iv dosed daily on 7-6-5 (on-off-on) schedule relative to control. The experiment is classed as functional.
For experiment [27], the system named is A549. The experiment in a line: Antitumor activity against human A549 cells xenografted in nude CD1 mouse at 120 mg/kg, iv daily relative to control. The experiment is classed as functional.
Experiment [28] has as its system MDA-MB-468. As to the kind of experiment: Antitumor activity against human MDA-MB-468 cells xenografted in nude CD1 mouse assessed as tumor regression at 120 mg/kg, iv daily relative to control. The experiment is classed as functional.
The subject of experiment [29] is HCT-116. The experiment in a line: Antitumor activity against human HCT116 cells xenografted in nude CD1 mouse at 60 mg/kg, iv dosed daily on 5-2-5 (on-off-on) schedule relative to control. The experiment is classed as functional.
Experiment [30] relates to CAL-27. As to the kind of experiment: Antitumor activity against human CAL27 cells xenografted in nude CD1 mouse assessed as tumor regression at 120 mg/kg, iv daily relative to control. The experiment is classed as functional.
For experiment [31], the system named is HepG2. The experiment in a line: Antitumor activity against human HepG2 cells xenografted in nude CD1 mouse assessed as tumor regression at 120 mg/kg, iv daily relative to control. The experiment is classed as functional.
Experiment [32] deals with HPAC. The experiment in a line: Antitumor activity against human HPAC cells xenografted in nude CD1 mouse at 120 mg/kg, iv daily relative to control. The format is functional.
In experiment [33] the test system is HepG2. As to the kind of experiment: Antitumor activity against human HepG2 cells xenografted in nude CD1 mouse at 72 mg/kg, iv daily relative to control. The format is functional.
The subject of experiment [34] is MDA-MB-468. As to the kind of experiment: Antitumor activity against human MDA-MB-468 cells xenografted in nude CD1 mouse at 75 mg/kg, po bid relative to control.
The subject of experiment [35] is HepG2. As to the kind of experiment: Antitumor activity against human HepG2 cells xenografted in nude CD1 mouse at 25 mg/kg, po daily relative to control. The format is functional.

Sequence of Receptor tyrosine-protein kinase erbB-2 (P04626 whole entry): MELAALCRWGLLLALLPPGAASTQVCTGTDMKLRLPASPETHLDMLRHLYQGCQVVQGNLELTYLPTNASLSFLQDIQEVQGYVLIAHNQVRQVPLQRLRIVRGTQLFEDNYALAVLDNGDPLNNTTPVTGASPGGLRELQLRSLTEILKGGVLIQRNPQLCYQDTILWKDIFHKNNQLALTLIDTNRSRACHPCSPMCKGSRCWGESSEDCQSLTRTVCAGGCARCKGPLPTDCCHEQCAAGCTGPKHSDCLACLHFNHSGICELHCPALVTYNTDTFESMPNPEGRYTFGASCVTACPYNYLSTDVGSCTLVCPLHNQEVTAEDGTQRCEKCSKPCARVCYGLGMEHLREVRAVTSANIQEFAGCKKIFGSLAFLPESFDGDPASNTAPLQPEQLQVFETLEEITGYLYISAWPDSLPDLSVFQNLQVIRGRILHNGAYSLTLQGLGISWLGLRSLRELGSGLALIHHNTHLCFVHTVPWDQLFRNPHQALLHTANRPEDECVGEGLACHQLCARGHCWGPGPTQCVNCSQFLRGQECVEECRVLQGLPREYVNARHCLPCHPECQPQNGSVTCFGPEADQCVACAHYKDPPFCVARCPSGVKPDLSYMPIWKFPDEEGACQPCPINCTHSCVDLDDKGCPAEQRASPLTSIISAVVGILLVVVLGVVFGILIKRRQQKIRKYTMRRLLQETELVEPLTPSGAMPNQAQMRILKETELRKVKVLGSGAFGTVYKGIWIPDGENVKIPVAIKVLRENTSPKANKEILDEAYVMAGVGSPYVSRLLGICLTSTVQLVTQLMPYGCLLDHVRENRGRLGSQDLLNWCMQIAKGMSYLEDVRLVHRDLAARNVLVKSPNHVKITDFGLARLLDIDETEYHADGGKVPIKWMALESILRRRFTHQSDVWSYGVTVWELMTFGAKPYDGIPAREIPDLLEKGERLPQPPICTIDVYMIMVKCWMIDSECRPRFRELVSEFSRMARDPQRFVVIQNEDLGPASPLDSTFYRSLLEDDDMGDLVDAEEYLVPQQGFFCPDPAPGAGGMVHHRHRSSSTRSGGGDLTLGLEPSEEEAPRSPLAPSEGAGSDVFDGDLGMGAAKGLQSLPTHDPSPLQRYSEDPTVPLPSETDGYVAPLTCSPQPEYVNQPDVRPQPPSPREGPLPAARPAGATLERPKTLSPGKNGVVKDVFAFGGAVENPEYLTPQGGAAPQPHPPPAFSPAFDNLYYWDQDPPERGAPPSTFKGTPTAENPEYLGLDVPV
Sequence of Epidermal growth factor receptor (P00533 whole entry): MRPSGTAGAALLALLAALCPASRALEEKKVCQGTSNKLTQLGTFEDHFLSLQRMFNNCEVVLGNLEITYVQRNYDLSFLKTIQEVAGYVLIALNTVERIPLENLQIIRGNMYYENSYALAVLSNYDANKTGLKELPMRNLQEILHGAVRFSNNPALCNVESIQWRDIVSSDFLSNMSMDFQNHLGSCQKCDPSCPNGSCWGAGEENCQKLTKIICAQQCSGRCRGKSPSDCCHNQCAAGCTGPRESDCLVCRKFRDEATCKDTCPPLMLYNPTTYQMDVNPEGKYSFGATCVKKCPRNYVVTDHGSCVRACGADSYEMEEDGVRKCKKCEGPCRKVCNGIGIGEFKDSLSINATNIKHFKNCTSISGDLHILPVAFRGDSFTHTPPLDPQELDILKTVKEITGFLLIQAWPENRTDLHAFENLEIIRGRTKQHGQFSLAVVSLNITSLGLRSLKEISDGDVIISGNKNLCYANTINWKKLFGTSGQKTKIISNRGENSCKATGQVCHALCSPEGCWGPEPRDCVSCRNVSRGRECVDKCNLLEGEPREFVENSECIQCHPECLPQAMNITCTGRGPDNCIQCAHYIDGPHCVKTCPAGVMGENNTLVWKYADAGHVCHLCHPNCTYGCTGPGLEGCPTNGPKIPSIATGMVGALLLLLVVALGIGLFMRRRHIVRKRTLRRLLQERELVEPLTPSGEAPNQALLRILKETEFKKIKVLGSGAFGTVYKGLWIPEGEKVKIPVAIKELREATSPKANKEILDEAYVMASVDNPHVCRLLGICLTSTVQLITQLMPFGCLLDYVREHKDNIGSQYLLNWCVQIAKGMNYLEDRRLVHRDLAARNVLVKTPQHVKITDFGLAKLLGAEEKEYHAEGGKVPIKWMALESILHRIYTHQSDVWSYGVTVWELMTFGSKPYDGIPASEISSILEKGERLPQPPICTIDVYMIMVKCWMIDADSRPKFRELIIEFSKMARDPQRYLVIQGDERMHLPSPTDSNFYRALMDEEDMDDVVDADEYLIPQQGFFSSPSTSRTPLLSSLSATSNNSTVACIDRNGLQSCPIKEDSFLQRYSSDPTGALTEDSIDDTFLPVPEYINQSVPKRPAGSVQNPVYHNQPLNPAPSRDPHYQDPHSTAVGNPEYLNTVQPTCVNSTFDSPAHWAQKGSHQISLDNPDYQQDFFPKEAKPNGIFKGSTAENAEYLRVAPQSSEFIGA
Sequence of Vascular endothelial growth factor receptor 2 (P35968 whole entry): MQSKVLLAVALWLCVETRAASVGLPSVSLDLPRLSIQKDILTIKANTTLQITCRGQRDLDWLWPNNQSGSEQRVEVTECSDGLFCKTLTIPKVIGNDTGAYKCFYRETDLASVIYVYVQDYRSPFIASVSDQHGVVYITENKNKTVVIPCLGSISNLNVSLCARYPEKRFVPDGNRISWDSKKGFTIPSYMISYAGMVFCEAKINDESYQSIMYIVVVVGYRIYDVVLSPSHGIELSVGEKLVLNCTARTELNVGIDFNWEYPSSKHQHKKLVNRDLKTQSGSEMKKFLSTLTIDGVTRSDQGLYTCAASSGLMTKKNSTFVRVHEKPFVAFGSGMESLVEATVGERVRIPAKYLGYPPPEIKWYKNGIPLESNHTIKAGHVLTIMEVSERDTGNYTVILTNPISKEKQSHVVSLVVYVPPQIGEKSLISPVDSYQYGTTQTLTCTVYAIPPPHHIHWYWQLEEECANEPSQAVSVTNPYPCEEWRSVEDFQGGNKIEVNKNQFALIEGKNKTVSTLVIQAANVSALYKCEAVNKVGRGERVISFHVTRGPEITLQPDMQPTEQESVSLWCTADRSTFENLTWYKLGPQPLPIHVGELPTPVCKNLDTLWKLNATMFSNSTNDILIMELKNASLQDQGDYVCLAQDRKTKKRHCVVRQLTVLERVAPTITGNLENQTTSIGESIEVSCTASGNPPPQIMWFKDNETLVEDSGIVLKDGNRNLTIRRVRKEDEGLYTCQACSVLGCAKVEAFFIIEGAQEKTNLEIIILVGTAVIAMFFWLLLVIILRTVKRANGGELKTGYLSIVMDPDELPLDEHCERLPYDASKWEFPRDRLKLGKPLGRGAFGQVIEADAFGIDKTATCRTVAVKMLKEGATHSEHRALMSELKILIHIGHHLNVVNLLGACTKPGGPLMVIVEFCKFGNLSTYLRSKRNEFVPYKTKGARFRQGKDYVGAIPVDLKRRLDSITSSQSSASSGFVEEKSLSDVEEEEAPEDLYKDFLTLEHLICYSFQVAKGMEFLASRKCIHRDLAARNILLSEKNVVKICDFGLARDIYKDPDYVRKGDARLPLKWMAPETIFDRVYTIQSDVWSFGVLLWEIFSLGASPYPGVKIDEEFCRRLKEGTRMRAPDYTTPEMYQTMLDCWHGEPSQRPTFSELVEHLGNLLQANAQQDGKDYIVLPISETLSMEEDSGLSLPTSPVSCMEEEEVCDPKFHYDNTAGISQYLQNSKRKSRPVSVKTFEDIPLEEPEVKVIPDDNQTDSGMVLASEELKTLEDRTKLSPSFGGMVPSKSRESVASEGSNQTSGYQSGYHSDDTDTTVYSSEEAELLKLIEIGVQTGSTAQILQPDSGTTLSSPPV
Sequence of NAD-dependent protein deacetylase sirtuin-1 (Homo sapiens) (Q96EB6 whole entry): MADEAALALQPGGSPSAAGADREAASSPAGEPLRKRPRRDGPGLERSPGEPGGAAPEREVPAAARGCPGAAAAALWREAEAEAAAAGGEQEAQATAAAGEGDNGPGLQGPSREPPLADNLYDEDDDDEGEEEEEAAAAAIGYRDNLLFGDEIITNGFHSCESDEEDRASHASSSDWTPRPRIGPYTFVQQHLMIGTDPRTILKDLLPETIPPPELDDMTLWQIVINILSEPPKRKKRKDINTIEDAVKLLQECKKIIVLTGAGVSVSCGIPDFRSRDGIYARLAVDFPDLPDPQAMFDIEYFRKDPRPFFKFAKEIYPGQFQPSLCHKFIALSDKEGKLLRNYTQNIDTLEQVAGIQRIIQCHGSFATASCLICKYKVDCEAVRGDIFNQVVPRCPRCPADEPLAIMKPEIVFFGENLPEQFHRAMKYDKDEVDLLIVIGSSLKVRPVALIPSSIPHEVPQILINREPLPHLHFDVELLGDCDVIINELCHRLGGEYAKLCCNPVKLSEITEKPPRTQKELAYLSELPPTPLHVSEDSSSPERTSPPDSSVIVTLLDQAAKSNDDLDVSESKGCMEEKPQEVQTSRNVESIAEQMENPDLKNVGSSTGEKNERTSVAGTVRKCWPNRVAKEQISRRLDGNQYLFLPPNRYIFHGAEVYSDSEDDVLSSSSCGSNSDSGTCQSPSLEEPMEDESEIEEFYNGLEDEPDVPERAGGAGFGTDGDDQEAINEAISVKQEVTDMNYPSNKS
Sequence of Tyrosine-protein kinase Lck (P06239 whole entry): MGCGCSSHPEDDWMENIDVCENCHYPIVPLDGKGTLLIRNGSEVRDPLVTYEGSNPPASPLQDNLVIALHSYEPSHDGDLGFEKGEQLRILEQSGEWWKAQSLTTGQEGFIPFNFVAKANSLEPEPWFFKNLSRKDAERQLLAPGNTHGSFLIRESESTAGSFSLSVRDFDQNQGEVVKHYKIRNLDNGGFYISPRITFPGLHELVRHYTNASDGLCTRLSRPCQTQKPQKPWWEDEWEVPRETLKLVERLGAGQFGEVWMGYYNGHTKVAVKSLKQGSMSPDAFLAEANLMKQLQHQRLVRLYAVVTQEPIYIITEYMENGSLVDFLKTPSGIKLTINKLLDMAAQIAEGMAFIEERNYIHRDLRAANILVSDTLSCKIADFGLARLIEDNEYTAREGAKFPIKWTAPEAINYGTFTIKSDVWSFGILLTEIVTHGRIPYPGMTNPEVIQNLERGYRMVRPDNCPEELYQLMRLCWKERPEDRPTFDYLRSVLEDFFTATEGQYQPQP

What is called IC50 is the concentration at which inhibition is half-maximal. A higher IC50 goes with a need for much substance. As to `COc1cc2ncnc(Nc3ccc(F)c(Cl)c3)c2cc1OCCCCCC(=O)NO`, the IC50 in experiment [1] was 31 nM; in [2] it was 3.4 nM; in [3], 20 nM.
For `COc1cc2ncnc(NC(C)c3ccc(F)cc3)c2cc1OCCCCCCC(=O)NO` (single isomer, unassigned) the same measures were 165.3 nM, 126 nM and 175 nM.
Turning to `C#Cc1cccc(Nc2ncnc3cc(OC)c(OCCCCCCC(=O)NO)cc23)c1` [CUDC-101], the IC50 in [4] worked out at 600 nM; in experiment [5] it was 400 nM; in experiment [6], 700 nM; in experiment [7] it was 130 nM; in experiment [8], 230 nM; in [9], 220 nM. Besides, the IC50 in experiment [10] is 800 nM; in experiment [11], 270 nM; in experiment [12] it was 550 nM; in [13] it was 100 nM; in experiment [14], 40 nM; in [18], 849 nM. Also, the IC50 came out at 11000 nM in experiment [19]; 840 nM in [20]; 5910 nM in experiment [21]; 3430 nM in experiment [22]; 1500 nM in [23]. The outcome in experiment [15], in [16] and in experiment [17] was inactive. The Activity is on record as 41.9% in [24]; 10.3% in experiment [25]; 6.5% in [26]; 35.9% in [27]; -13.7% in experiment [28]; 35.3% in [29]. Moreover, the Activity is listed as -36.5% in [30], -21.3% in [31] and 35.1% in experiment [32].
In the case of `COc1cc2ncnc(NC(C)c3ccc(Cl)cc3)c2cc1OCCCCCCC(=O)NO` (single isomer, unassigned), the IC50 turned out to be 188 nM in [1], 614 nM in experiment [2] and 557 nM in experiment [3].
Regarding `COc1cc2ncnc(N[C@H](C)c3ccccc3)c2cc1OCCCCCCC(=O)NO`, the half-maximal inhibitory concentration (IC50) in [1] was 98.4 nM; in [3], 27.8 nM.
`C#Cc1cccc(Nc2ncnc3cc(OC)c(OCCCCCC(=O)NO)cc23)c1`: the results for the IC50 in experiment [1], in [2] and in experiment [3] were 13.2 nM, 4.6 nM and 38.2 nM, respectively.
For `COc1cc2ncnc(Nc3ccc(F)c(Cl)c3)c2cc1NC(=O)CCCCCCC(=O)NO` the same measures were 15.3 nM, 2.1 nM and 20.1 nM.
As to `C#Cc1cccc(Nc2ncnc3cc(OC)c(OCCCCC(=O)NO)cc23)c1`, the IC50 in experiment [1] came to 421 nM; in [3], 38.4 nM.
As to `C#Cc1cc(Nc2ncnc3cc(OC)c(OCCCCCCC(=O)NO)cc23)ccc1F`, the IC50 in experiment [1] was 3.4 nM; in experiment [2], 28.8 nM; in experiment [3], 76.5 nM.
For `O=C(CCCCCCOc1ccc2ncnc(Nc3ccc(F)c(Cl)c3)c2c1)NO`, the values for the IC50 in [1], in [2] and in [3] were 4.4 nM, 84.2 nM and 43.5 nM, respectively.
For `COc1cc2ncnc(NCc3ccc(F)cc3)c2cc1OCCCCCCC(=O)NO`, the IC50 turned out to be 5.6 nM in experiment [1] and 295 nM in experiment [3].
`COc1cc2ncnc(NCc3ccccc3)c2cc1OCCCCCCC(=O)NO`: the figures for the IC50 in [1], in experiment [2] and in experiment [3] were 4.2 nM, 99.4 nM and 225 nM, respectively.
Take `O=C(CCCCCCC(=O)Nc1ccccc1)NO` [VORINOSTAT]: the half-inhibitory concentration (IC50) in experiment [7] was determined as 1660 nM; in [13], 2110 nM. The Activity in experiment [33] is listed as 26%.
For `COc1cc2ncnc(N[C@@H](C)c3ccccc3)c2cc1OCCCCCCC(=O)NO`, the IC50 is 25.7 nM in [1] and more than 2000 nM in experiment [3].
In the case of `COCCOc1cc2ncnc(Nc3ccc(F)c(Cl)c3)c2cc1OCCCCCCC(=O)NO`, the IC50 came to 8.4 nM in [1], 10.4 nM in experiment [2] and 24 nM in experiment [3].
For `COc1cc2ncnc(Nc3ccc(OCc4cccc(F)c4)c(Cl)c3)c2cc1OCCCCCCC(=O)NO` the same measures were 58.1 nM, 9.08 nM and 10.1 nM.
In the case of `COc1cc2ncnc(Nc3ccc(F)c(Cl)c3)c2cc1OCCCCCCC(=O)NO`, the IC50 in [1] was found to be 6.5 nM; in [4], 930 nM; in experiment [5], 710 nM; in experiment [6], 900 nM; in experiment [7], 290 nM; in experiment [8] it was 600 nM. The concentration for half-maximal inhibition (IC50) in experiment [9] is 330 nM; in experiment [10] it was 1730 nM; in [11], 380 nM; in experiment [12], 1100 nM; in experiment [13], 370 nM; in experiment [14], 170 nM. Besides, inhibition in experiment [3] was half-maximal at 19 nM (IC50).
As for `COc1cc2ncnc(Nc3ccc(F)c(Cl)c3)c2cc1OCCCCC(=O)NO`, the IC50 was determined as 551 nM in experiment [1], 9.4 nM in experiment [2] and 15 nM in experiment [3].
As for `COc1cc2ncnc(NCc3ccc(Cl)c(F)c3)c2cc1OCCCCCCC(=O)NO`, the IC50 in experiment [1] was found to be 11.3 nM; in experiment [2], 72 nM; in experiment [3] it was 478 nM.
As to `COc1cc2ncnc(Nc3ccc(F)c(Cl)c3)c2cc1S(=O)(=O)CCCCCCC(=O)NO`, the IC50 in experiment [1] is 121.7 nM; in experiment [2] it was 15.4 nM; in experiment [3], more than 2000 nM.
Take `COc1cc2ncnc(Nc3ccc(F)c(Cl)c3)c2cc1OCCC(=O)NO`: the values for the IC50 in experiment [1], in [2] and in experiment [3] were 40900 nM, 7.1 nM and 10.6 nM, respectively.
Regarding `C#Cc1cccc(Nc2ncnc3cc(OCCCCCCC(=O)NO)c(OC)cc23)c1`, the half-maximal inhibitory concentration (IC50) in experiment [1] came out at 34.1 nM; in experiment [2] it was 8.2 nM; in experiment [3], 51.6 nM.
As to `CS(=O)(=O)CCNCc1ccc(-c2ccc3ncnc(Nc4ccc(OCc5cccc(F)c5)c(Cl)c4)c3c2)o1` [LAPATINIB], the IC50 was 6270 nM in [7]; 5490 nM in experiment [8]; 5300 nM in [9]; 6600 nM in [12]; 5400 nM in experiment [13]; 40 nM in [14]. In addition, the Activity in experiment [34] was 51%.
In the case of `COc1cc2ncnc(Nc3ccc(F)c(Cl)c3)c2cc1SCCCCCCC(=O)NO`, the concentration for half-maximal inhibition (IC50) in [1] is 39.6 nM; in experiment [2] it was 1.99 nM; in experiment [3], 24.2 nM.
For `COc1cc2c(Nc3ccc(F)c(Cl)c3)ncnc2cc1OCCCCCCC(=O)NO` the same measures were 66.6 nM, 7 nM and 71.2 nM.
`COc1cc2ncnc(Nc3ccc(F)c(Cl)c3)c2cc1OCCCC(=O)NO`: the IC50 in experiment [1] was more than 100000 nM; in experiment [2], 7.8 nM; in [3], 12.4 nM.
As for `C#Cc1cccc(Nc2ncnc3cc(OCCOC)c(OCCOC)cc23)c1` [ERLOTINIB], in [35], the Activity was 50.8%.
